From ChEMBL document CHEMBL4411260, “Dual Inhibition of TYK2 and JAK1 for the Treatment of Autoimmune Diseases: Discovery of (( S)-2,2-Difluorocyclopropyl)((1 R,5 S)-3-(2-((1-methyl-1 H-pyrazol-4-yl)amino)pyrimidin-4-yl)-3,8-diazabicyclo[3.2.1]octan-8-yl)methanone (PF-06700841)” (J Med Chem, 2018)

How the values were obtained:
[1] = molecular target: T1, Tyrosine-protein kinase JAK2 (Homo sapiens, UniProt O60674)
[2] = molecular target: T1, Tyrosine-protein kinase JAK2; remark: listed apart in the source
[3] = Passive apparent permeability from apical to basolateral side in RRCK cells; format: ADME, cell-based, Canis lupus familiaris, MDCKII-LE; settings: dog, MDCK
[4] = molecular target: T2, Tyrosine-protein kinase JAK1 (Homo sapiens, UniProt P23458)
[5] = molecular target: T3, Tyrosine-protein kinase JAK3 (Homo sapiens, UniProt P52333)
T3 sequence (P52333 whole entry): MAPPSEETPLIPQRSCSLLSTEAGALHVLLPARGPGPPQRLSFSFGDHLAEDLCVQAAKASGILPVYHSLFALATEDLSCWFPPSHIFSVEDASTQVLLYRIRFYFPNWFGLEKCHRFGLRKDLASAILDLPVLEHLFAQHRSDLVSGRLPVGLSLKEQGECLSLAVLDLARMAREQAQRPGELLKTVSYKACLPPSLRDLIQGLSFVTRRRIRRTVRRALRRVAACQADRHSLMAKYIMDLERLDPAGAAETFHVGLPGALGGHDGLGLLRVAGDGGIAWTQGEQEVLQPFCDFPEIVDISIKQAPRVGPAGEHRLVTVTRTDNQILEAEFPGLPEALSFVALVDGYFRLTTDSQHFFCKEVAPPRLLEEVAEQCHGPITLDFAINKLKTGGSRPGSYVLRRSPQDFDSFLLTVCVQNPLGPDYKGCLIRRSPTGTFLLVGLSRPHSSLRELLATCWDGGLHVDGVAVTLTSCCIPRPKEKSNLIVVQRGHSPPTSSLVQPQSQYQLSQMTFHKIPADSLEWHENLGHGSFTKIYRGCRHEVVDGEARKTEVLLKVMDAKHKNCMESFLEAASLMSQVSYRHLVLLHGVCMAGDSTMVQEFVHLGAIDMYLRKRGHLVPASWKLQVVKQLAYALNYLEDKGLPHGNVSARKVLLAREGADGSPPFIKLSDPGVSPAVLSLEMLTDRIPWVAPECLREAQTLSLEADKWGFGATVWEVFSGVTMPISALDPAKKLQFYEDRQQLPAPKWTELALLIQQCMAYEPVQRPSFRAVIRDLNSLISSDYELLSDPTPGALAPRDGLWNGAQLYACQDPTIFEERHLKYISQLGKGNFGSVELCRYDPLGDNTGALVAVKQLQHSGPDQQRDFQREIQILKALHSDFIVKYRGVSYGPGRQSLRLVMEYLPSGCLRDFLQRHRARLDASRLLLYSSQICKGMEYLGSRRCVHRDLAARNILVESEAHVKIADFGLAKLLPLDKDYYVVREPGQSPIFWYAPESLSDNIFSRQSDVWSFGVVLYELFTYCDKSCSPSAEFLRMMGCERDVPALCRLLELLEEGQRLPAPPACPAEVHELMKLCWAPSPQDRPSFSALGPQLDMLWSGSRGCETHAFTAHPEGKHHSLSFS

[6] = molecular target: T4, Non-receptor tyrosine-protein kinase TYK2 (Homo sapiens, UniProt P29597)
[7] = physchem; settings: octanol/water phosphate buffer, pH 7.4
[8] = molecular target: T5, JAK1/TYK2 (Homo sapiens, UniProt P23458+P29597)
[9] = molecular target: T1, Tyrosine-protein kinase JAK2; remark: listed apart in the source
[10] = molecular target: T5, JAK1/TYK2; assay: Inhibition of JAK1/TYK2 signaling pathway in human lymphocytes of whole blood assessed as reduction in IFN-alpha induced STAT3 phosphorylation preincubated for 45 mins followed by IFN-alpha addition and measured measured after 15 mins by FACS assay; format: cell-based
[11] = molecular target: T1, Tyrosine-protein kinase JAK2; assay: Inhibition of human JAK2 using fluorescence labeled peptide as substrate and using ATP at its Km level by microfluidic based mobility shift assay
[12] = molecular target: T3, Tyrosine-protein kinase JAK3; assay: Inhibition of human JAK3 using fluorescence labeled peptide as substrate and using ATP at its Km level by microfluidic based mobility shift assay
[13] = molecular target: T4, Non-receptor tyrosine-protein kinase TYK2; assay: Inhibition of human TYK2 using fluorescence labeled peptide as substrate and using ATP at its Km level by microfluidic based mobility shift assay
[14] = molecular target: T2, Tyrosine-protein kinase JAK1; assay: Inhibition of human JAK1 using fluorescence labeled peptide as substrate and using ATP at its Km level by microfluidic based mobility shift assay

T1 sequence (O60674 whole entry): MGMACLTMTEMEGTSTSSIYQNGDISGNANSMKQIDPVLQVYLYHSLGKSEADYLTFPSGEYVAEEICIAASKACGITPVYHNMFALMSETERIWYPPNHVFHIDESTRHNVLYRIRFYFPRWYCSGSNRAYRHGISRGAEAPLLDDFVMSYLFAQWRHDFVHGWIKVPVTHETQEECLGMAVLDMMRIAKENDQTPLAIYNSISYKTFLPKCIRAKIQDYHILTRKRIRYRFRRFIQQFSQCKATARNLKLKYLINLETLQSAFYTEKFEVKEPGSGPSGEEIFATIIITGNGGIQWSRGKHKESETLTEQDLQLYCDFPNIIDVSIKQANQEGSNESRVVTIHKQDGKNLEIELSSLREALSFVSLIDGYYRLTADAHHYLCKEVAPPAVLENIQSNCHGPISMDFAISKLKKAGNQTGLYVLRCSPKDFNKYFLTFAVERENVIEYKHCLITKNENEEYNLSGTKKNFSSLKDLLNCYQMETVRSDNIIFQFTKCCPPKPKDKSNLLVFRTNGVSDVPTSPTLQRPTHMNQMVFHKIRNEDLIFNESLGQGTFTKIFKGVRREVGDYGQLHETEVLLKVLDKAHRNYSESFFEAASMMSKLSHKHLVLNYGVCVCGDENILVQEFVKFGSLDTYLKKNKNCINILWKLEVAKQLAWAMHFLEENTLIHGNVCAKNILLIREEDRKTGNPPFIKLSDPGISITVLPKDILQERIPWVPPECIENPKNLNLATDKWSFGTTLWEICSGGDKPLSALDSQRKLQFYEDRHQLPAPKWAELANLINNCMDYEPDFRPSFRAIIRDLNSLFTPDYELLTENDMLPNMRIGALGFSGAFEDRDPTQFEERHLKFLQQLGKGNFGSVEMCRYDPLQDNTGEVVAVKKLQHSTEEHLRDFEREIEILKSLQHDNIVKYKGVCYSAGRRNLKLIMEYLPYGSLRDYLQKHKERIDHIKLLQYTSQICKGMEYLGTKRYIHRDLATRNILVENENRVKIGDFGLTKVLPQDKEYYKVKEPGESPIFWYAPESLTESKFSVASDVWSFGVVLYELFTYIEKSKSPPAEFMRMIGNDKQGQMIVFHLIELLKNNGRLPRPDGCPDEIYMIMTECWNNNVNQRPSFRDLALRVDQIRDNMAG
T2 sequence (P23458 whole entry): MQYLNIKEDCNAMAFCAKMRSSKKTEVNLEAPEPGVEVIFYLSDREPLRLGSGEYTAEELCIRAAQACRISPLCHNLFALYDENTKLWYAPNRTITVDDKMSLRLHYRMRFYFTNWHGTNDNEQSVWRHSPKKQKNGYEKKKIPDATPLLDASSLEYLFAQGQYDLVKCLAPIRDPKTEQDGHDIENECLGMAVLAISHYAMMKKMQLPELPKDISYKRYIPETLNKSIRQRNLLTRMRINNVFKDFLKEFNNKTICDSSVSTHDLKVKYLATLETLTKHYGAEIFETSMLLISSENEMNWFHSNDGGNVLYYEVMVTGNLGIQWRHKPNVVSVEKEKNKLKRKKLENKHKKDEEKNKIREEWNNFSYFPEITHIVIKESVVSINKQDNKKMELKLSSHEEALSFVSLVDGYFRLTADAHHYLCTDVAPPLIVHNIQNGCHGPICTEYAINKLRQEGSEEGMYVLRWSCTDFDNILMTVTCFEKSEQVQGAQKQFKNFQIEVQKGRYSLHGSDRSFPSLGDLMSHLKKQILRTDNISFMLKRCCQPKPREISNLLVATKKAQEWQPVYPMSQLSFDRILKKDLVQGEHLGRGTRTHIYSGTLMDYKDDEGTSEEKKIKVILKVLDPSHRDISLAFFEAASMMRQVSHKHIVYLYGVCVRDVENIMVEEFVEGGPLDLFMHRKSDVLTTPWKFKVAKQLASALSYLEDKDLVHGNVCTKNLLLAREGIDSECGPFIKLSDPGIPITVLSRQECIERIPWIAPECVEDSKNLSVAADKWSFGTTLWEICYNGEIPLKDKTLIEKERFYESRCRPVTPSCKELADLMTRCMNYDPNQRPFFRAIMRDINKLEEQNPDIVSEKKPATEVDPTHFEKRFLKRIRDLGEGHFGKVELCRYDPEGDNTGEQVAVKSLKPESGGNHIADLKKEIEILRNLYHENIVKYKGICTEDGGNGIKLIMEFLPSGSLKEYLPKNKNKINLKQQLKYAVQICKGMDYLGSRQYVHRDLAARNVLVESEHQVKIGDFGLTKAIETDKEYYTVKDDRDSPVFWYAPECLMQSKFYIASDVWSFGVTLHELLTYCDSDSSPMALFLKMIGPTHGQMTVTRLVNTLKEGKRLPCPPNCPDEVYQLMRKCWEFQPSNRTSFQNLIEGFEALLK
T5 sequence (P23458 whole entry): as above
T5 sequence (P29597 whole entry): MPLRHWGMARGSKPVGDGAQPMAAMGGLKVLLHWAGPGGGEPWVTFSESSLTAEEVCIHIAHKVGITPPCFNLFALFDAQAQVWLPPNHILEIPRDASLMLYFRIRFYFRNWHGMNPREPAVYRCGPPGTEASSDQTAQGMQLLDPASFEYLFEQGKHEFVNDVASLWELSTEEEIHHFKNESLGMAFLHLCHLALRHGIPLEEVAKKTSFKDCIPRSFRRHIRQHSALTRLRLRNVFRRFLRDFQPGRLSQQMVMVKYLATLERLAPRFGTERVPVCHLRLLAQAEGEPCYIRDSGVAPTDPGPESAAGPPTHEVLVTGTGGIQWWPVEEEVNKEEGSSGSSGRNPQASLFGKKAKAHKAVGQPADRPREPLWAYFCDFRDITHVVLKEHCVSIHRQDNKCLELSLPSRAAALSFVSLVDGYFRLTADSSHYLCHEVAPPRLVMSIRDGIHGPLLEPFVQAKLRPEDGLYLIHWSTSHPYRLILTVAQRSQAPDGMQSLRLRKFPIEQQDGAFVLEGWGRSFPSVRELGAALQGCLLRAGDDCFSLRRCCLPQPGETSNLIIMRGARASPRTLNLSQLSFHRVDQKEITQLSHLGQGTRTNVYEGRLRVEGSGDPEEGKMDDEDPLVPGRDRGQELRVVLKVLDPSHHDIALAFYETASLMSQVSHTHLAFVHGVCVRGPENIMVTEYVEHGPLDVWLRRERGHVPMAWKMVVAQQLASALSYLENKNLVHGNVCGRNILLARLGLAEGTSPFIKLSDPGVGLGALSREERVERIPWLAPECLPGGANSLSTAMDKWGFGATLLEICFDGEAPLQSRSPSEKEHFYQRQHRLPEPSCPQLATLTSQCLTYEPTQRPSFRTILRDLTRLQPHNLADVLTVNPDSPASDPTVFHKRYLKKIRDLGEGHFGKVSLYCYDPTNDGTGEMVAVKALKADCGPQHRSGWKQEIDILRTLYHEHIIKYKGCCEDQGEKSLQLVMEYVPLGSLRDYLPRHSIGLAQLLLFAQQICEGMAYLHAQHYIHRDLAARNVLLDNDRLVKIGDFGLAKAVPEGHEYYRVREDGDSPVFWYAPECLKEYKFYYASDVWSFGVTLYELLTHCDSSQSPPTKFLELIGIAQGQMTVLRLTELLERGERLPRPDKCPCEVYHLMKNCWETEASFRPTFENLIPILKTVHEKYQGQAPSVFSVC
T4 sequence (P29597 whole entry): as above

| Structure (SMILES) | IC50 [1] | fIC50 [2] | IC50 [4] | IC50 [5] | IC50 [6] | logD [7] | fIC50 [8] | other results |
| --- | --- | --- | --- | --- | --- | --- | --- | --- |
| Cn1cc(Nc2ncc(F)c(N3CC4CC[C@H](C3)N4C(=O)C3CC3)n2)cn1 (single isomer, unassigned) | 0.488 µM | 8 nM | 0.076 µM | 2.88 µM | 0.053 µM | 2.13 | 84 nM | Papp A→B [3]: 5.6 to 18.8 ×10⁻⁶ cm/s; IC50 [9]: 6.28 µM; IC50 [10]: 0.144 µM |
| CCNC(=O)c1ccc(Nc2nccc(N3C[C@@H]4C[C@H]3CN4C(=O)C3CC3)n2)cc1 | > 10 µM |  | > 9.52 µM | > 10 µM | 1.74 µM | 1.96 |  |  |
| CCNC(=O)c1ccc(Nc2nccc(N3C[C@@H]4C[C@H]3CN4C(=O)CC#N)n2)cc1 | > 9.97 µM |  | 3.71 µM | > 10 µM | 0.774 µM | 0.9 |  | IC50 [11]: 0.366 µM; IC50 [12]: > 4.95 µM; IC50 [13]: 0.023 µM; IC50 [14]: 0.358 µM |
| CCNC(=O)c1ccc(Nc2ncc(F)c(N3CC4CC[C@H](C3)N4C(=O)C3CC3)n2)cc1 (single isomer, unassigned) |  |  |  |  |  | 2.88 |  |  |
| Cn1cc(Nc2nccc(N3CC4CC[C@H](C3)N4C(=O)C3CC3)n2)cn1 (single isomer, unassigned) |  | 11 nM |  |  |  | 1.52 | 91 nM |  |
| CCNC(=O)c1ccc(Nc2ncc(F)c(N3CC4CC[C@H](C3)N4C(=O)C3CC3)n2)nc1 (single isomer, unassigned) | > 10 µM |  | > 10 µM | > 10 µM | 7.2 µM | 2.71 |  | Papp A→B [3]: 5.6 to 18.8 ×10⁻⁶ cm/s |
| CCNC(=O)c1ccc(Nc2nccc(N3CCN(C(=O)CC#N)CC3)n2)cc1 |  |  |  |  |  |  |  | IC50 [11]: 1.08 µM; IC50 [12]: 8.74 µM; IC50 [13]: 0.368 µM; IC50 [14]: 3.06 µM |
| Cn1cc(Nc2nccc(N3CC4CC[C@H](C3)N4C(=O)[C@H]3CC3(F)F)n2)cn1 (single isomer, unassigned) |  |  |  |  |  | 1.55 |  |  |
| Cn1cc(Nc2nccc(N3CC4CC[C@H](C3)N4C(=O)NCC(F)(F)F)n2)cn1 (single isomer, unassigned) | 0.146 µM | 15 nM | 0.014 µM | 6.87 µM | 0.028 µM | 1.72 | 26 nM | IC50 [9]: 1.16 µM; IC50 [10]: 0.051 µM |
| CCNC(=O)c1ncc(Nc2ncc(F)c(N3CC4CC[C@H](C3)N4C(=O)C3CC3)n2)cc1C (single isomer, unassigned) | 0.692 µM | 11 nM | 0.234 µM | 4.96 µM | 0.048 µM | 3.21 | 91 nM | Papp A→B [3]: 5.6 to 18.8 ×10⁻⁶ cm/s; IC50 [9]: 12.2 µM; IC50 [10]: 0.385 µM |
| CCNC(=O)c1ccc(Nc2nccc(N3CC4CC[C@H](C3)N4C(=O)C3CC3)n2)cc1 (single isomer, unassigned) |  |  |  |  |  | 1.86 |  |  |
| CCNC(=O)N1C2CC[C@@H]1CN(c1ccnc(Nc3cnn(C)c3)n1)C2 (single isomer, unassigned) |  | 14 nM |  |  |  | 1.44 | 60 nM |  |
| O=C(C1CC1)N1C2CC[C@@H]1CN(c1nc(Nc3cnn(CCO)c3)ncc1F)C2 (single isomer, unassigned) |  | 10 nM |  |  |  | 1.78 | 70 nM | Papp A→B [3]: 5.6 to 18.8 ×10⁻⁶ cm/s |
| CCNC(=O)c1ccc(Nc2nccc(N3C[C@H]4C[C@@H]3CN4C(=O)CC#N)n2)cc1 |  |  |  |  |  | 0.9 |  | IC50 [11]: > 4.22 µM; IC50 [12]: > 10 µM; IC50 [13]: 2.69 µM; IC50 [14]: 7.18 µM |
| CCNC(=O)c1ccc(Nc2nccc(N3C[C@@H]4CC[C@H]3CN4C(=O)C3CC3)n2)cc1 | 2.78 µM |  | 0.748 µM | > 10 µM | 0.148 µM | 2.16 |  |  |
| CCNC(=O)c1ccc(Nc2nccc(N3C[C@H]4C[C@@H](C3)N4C(=O)C3CC3)n2)cc1 |  |  |  |  |  | 2.15 |  |  |
| Cn1cc(Nc2nccc(N3CC4CC[C@H](C3)N4C(=O)NCC#N)n2)cn1 (single isomer, unassigned) |  | 28 nM |  |  |  | 0.97 | 73 nM | Papp A→B [3]: 0.6 ×10⁻⁶ cm/s |
